Reference: publication PMC9848257, “Design and synthesis of novel rigid dibenzo[b,f]azepines through ring closure technique as promising anticancer candidates against leukaemia and acting as selective topoisomerase II inhibitors and DNA intercalators” (Journal of Enzyme Inhibition and Medicinal Chemistry, 2023)

Assays:
Type in all cases: cell-based
OVCAR-3 = assay: NCI-60 one-dose screen, OVCAR-3; conditions: Homo sapiens; OVCAR-3, ovarian cancer; single dose 10 μM; read-out: Growth inhibition %
Description: (§1) Anti-proliferative effects of the counterparts 4a–g and 5a–g were screened against 60 human cancer cell lines, following the Developmental Therapeutics Program protocol, National Cancer Institute[35].
(§2) The anti-tumour activity of the fourteen synthesised congeners was investigated at the NCI against a panel of 60 cancer cell lines (NCI-60 Cell One-Dose Screen). The tested dibenzo[b,f]azepine derivatives were screened at a single dose level (10 μM), Table 1.

HS 578 T = assay: NCI-60 one-dose screen, HS 578 T; conditions: Homo sapiens, breast cancer, single dose 10 μM, read-out: Growth inhibition %
Description: as §1, §2

SF-539 = assay: NCI-60 one-dose screen, SF-539; conditions: Homo sapiens; SF-539, CNS cancer; single dose 10 μM; read-out: Growth inhibition %
Description: as §1, §2

MDA-MB-231-ATCC = assay: NCI-60 one-dose screen, MDA-MB-231-ATCC; conditions: Homo sapiens, breast cancer, single dose 10 μM, read-out: Growth inhibition %
Description: as §1, §2

M14 = assay: NCI-60 one-dose screen, M14; conditions: Homo sapiens; M14, melanoma; single dose 10 μM; read-out: Growth inhibition %
Description: as §1, §2

UACC-62 = assay: NCI-60 one-dose screen, UACC-62; conditions: Homo sapiens; UACC-62, melanoma; single dose 10 μM; read-out: Growth inhibition %
Description: as §1, §2

UO-31 = assay: NCI-60 one-dose screen, UO-31; conditions: Homo sapiens; UO-31, renal cancer; single dose 10 μM; read-out: Growth inhibition %
Description: as §1, §2

RXF 393 = assay: NCI-60 one-dose screen, RXF 393; conditions: Homo sapiens; RXF 393, renal cancer; single dose 10 μM; read-out: Growth inhibition %
Description: as §1, §2

UACC-257 = assay: NCI-60 one-dose screen, UACC-257; conditions: Homo sapiens; UACC-257, melanoma; single dose 10 μM; read-out: Growth inhibition %
Description: as §1, §2

SR = assay: NCI-60 one-dose screen, SR; conditions: Homo sapiens, leukaemia, single dose 10 μM, read-out: Growth inhibition %
Description: as §1, §2

SK-MEL-28 = assay: NCI-60 one-dose screen, SK-MEL-28; conditions: Homo sapiens; SK-MEL-28, melanoma; single dose 10 μM; read-out: Growth inhibition %
Description: as §1, §2

NCI/ADR-RES = assay: NCI-60 one-dose screen, NCI/ADR-RES; conditions: Homo sapiens, ovarian cancer, single dose 10 μM, read-out: Growth inhibition %
Description: as §1, §2

OVCAR-4 = assay: NCI-60 one-dose screen, OVCAR-4; conditions: Homo sapiens; OVCAR-4, ovarian cancer; single dose 10 μM; read-out: Growth inhibition %
Description: as §1, §2

PC-3 = assay: NCI-60 one-dose screen, PC-3; conditions: Homo sapiens; PC-3, prostate cancer; single dose 10 μM; read-out: Growth inhibition %
Description: as §1, §2

MDA-MB-435 = assay: NCI-60 one-dose screen, MDA-MB-435; conditions: Homo sapiens; MDA-MB-435, melanoma; single dose 10 μM; read-out: Growth inhibition %
Description: as §1, §2

CAKI-1 = assay: NCI-60 one-dose screen, CAKI-1; conditions: Homo sapiens; CAKI-1, renal cancer; single dose 10 μM; read-out: Growth inhibition %
Description: as §1, §2

U251 = assay: NCI-60 one-dose screen, U251; conditions: Homo sapiens, U-251; U251, CNS cancer; single dose 10 μM; read-out: Growth inhibition %
Description: as §1, §2

DU-145 = assay: NCI-60 one-dose screen, DU-145; conditions: Homo sapiens; DU-145, prostate cancer; single dose 10 μM; read-out: Growth inhibition %
Description: as §1, §2

SW-620 = assay: NCI-60 one-dose screen, SW-620; conditions: Homo sapiens; SW-620, colon cancer; single dose 10 μM; read-out: Growth inhibition %
Description: as §1, §2

EKVX = assay: NCI-60 one-dose screen, EKVX; conditions: Homo sapiens, non-small cell lung cancer, single dose 10 μM, read-out: Growth inhibition %
Description: as §1, §2

HCC-2998 = assay: NCI-60 one-dose screen, HCC-2998; conditions: Homo sapiens; HCC-2998, colon cancer; single dose 10 μM; read-out: Growth inhibition %
Description: as §1, §2

NCI-H23 = assay: NCI-60 one-dose screen, NCI-H23; conditions: Homo sapiens; NCI-H23, non-small cell lung cancer; single dose 10 μM; read-out: Growth inhibition %
Description: as §1, §2

CCRF-CEM = assay: NCI-60 one-dose screen, CCRF-CEM; conditions: Homo sapiens, leukaemia, single dose 10 μM, read-out: Growth inhibition %
Description: as §1, §2

786-0 = assay: NCI-60 one-dose screen, 786-0; conditions: Homo sapiens; 786-0, renal cancer; single dose 10 μM; read-out: Growth inhibition %
Description: as §1, §2

HT29 = assay: NCI-60 one-dose screen, HT29; conditions: Homo sapiens, HT-29; HT29, colon cancer; single dose 10 μM; read-out: Growth inhibition %
Description: as §1, §2

COLO 205 = assay: NCI-60 one-dose screen, COLO 205; conditions: Homo sapiens; COLO 205, colon cancer; single dose 10 μM; read-out: Growth inhibition %
Description: as §1, §2

MALME-3M = assay: NCI-60 one-dose screen, MALME-3M; conditions: Homo sapiens, melanoma, single dose 10 μM, read-out: Growth inhibition %
Description: as §1, §2

SF-268 = assay: NCI-60 one-dose screen, SF-268; conditions: Homo sapiens; SF-268, CNS cancer; single dose 10 μM; read-out: Growth inhibition %
Description: as §1, §2

HOP-62 = assay: NCI-60 one-dose screen, HOP-62; conditions: Homo sapiens; HOP-62, non-small cell lung cancer; single dose 10 μM; read-out: Growth inhibition %
Description: as §1, §2

T-47D = assay: NCI-60 one-dose screen, T-47D; conditions: Homo sapiens, T47D, breast cancer, single dose 10 μM, read-out: Growth inhibition %
Description: as §1, §2

HCT-116 = assay: NCI-60 one-dose screen, HCT-116; conditions: Homo sapiens; HCT-116, colon cancer; single dose 10 μM; read-out: Growth inhibition %
Description: as §1, §2

SK-MEL-5 = assay: NCI-60 one-dose screen, SK-MEL-5; conditions: Homo sapiens; SK-MEL-5, melanoma; single dose 10 μM; read-out: Growth inhibition %
Description: as §1, §2

NCI-H226 = assay: NCI-60 one-dose screen, NCI-H226; conditions: Homo sapiens; NCI-H226, non-small cell lung cancer; single dose 10 μM; read-out: Growth inhibition %
Description: as §1, §2

NCI-H322M = assay: NCI-60 one-dose screen, NCI-H322M; conditions: Homo sapiens, non-small cell lung cancer, single dose 10 μM, read-out: Growth inhibition %
Description: as §1, §2

`O=C(Cc1ccccc1)NNC(=O)N1c2ccccc2C=Cc2ccccc21` [Compound 4g, N′-(2-Phenylacetyl)-5H-dibenzo[b,f]azepine-5-carbohydrazide] gave an inhibition at 10 µM (OVCAR-3) of less than 10%, an inhibition at 10 µM (HS 578 T) of less than 10% and an inhibition at 10 µM (SF-539) of less than 10%. For the same molecule, the inhibition at 10 µM (MDA-MB-231-ATCC) was less than 10%, the inhibition at 10 µM (M14) was less than 10% and the inhibition at 10 µM (UACC-62) was less than 10%. For the same molecule, the inhibition at 10 µM (UO-31) was less than 10%, the inhibition at 10 µM (RXF 393) was less than 10% and the inhibition at 10 µM (UACC-257) was less than 10%. The inhibition at 10 µM (SR) was less than 10%, the inhibition at 10 µM (SK-MEL-28) was less than 10% and the inhibition at 10 µM (NCI/ADR-RES) was less than 10%. For the same molecule, the inhibition at 10 µM (OVCAR-4) was less than 10%, the inhibition at 10 µM (PC-3) was less than 10% and the inhibition at 10 µM (MDA-MB-435) was less than 10%. The inhibition at 10 µM (CAKI-1) was less than 10%, the inhibition at 10 µM (U251) was less than 10% and the inhibition at 10 µM (DU-145) was less than 10%. It also gave an inhibition at 10 µM (SW-620) of less than 10%, an inhibition at 10 µM (EKVX) of 13.8% and an inhibition at 10 µM (HCC-2998) of less than 10%. The inhibition at 10 µM (NCI-H23) was less than 10%, the inhibition at 10 µM (CCRF-CEM) was less than 10% and the inhibition at 10 µM (786-0) was less than 10%. It also gave an inhibition at 10 µM (HT29) of less than 10%, an inhibition at 10 µM (COLO 205) of less than 10% and an inhibition at 10 µM (MALME-3M) of less than 10%. The inhibition at 10 µM (SF-268) was less than 10%, the inhibition at 10 µM (HOP-62) was less than 10% and the inhibition at 10 µM (T-47D) was less than 10%. It also gave an inhibition at 10 µM (HCT-116) of less than 10%, an inhibition at 10 µM (SK-MEL-5) of less than 10% and an inhibition at 10 µM (NCI-H226) of less than 10%. The inhibition at 10 µM (NCI-H322M) was less than 10%.
`C1=Cc2ccccc2N(c2nnc(-c3ccccc3)o2)c2ccccc21` [Compound 5a, 2-(5 h-Dibenzo[b,f]azepin-5-yl)-5-phenyl-1,3,4-oxadiazole] gave an inhibition at 10 µM (OVCAR-3) of less than 10%, an inhibition at 10 µM (HS 578 T) of less than 10% and an inhibition at 10 µM (SF-539) of less than 10%. The inhibition at 10 µM (MDA-MB-231-ATCC) was less than 10%, the inhibition at 10 µM (M14) was 12.1% and the inhibition at 10 µM (UACC-62) was less than 10%. The inhibition at 10 µM (UO-31) was 39.4%, the inhibition at 10 µM (RXF 393) was less than 10% and the inhibition at 10 µM (UACC-257) was 13.6%. The inhibition at 10 µM (SR) was less than 10%, the inhibition at 10 µM (SK-MEL-28) was 28% and the inhibition at 10 µM (NCI/ADR-RES) was less than 10%. It also gave an inhibition at 10 µM (OVCAR-4) of less than 10%, an inhibition at 10 µM (PC-3) of less than 10% and an inhibition at 10 µM (MDA-MB-435) of less than 10%. It also gave an inhibition at 10 µM (CAKI-1) of less than 10%, an inhibition at 10 µM (U251) of 20.1% and an inhibition at 10 µM (DU-145) of 12.4%. It also gave an inhibition at 10 µM (SW-620) of less than 10%, an inhibition at 10 µM (EKVX) of less than 10% and an inhibition at 10 µM (HCC-2998) of 33.4%. For the same molecule, the inhibition at 10 µM (NCI-H23) was less than 10%, the inhibition at 10 µM (CCRF-CEM) was 26.1% and the inhibition at 10 µM (786-0) was 20%. It also gave an inhibition at 10 µM (HT29) of less than 10%, an inhibition at 10 µM (COLO 205) of less than 10% and an inhibition at 10 µM (MALME-3M) of less than 10%. For the same molecule, the inhibition at 10 µM (SF-268) was less than 10%, the inhibition at 10 µM (HOP-62) was 15.3% and the inhibition at 10 µM (T-47D) was less than 10%. It also gave an inhibition at 10 µM (HCT-116) of 54.2%, an inhibition at 10 µM (SK-MEL-5) of less than 10% and an inhibition at 10 µM (NCI-H226) of less than 10%. The inhibition at 10 µM (NCI-H322M) was 50.2%.
`Brc1ccc(-c2nnc(N3c4ccccc4C=Cc4ccccc43)o2)cc1` [Compound 5b, 2-(4-Bromophenyl)-5-(5H-dibenzo[b,f]azepin-5-yl)-1,3,4-oxadiazole] was tested, and the inhibition at 10 µM (OVCAR-3) was less than 10%, the inhibition at 10 µM (HS 578 T) was 14.4% and the inhibition at 10 µM (SF-539) was 17.2%. It also gave an inhibition at 10 µM (MDA-MB-231-ATCC) of 22.3%, an inhibition at 10 µM (M14) of less than 10% and an inhibition at 10 µM (UACC-62) of 32.2%. The inhibition at 10 µM (UO-31) was 33.5%, the inhibition at 10 µM (RXF 393) was 24.9% and the inhibition at 10 µM (UACC-257) was less than 10%. It also gave an inhibition at 10 µM (SR) of 73%, an inhibition at 10 µM (SK-MEL-28) of 14.1% and an inhibition at 10 µM (NCI/ADR-RES) of 23.4%. It also gave an inhibition at 10 µM (OVCAR-4) of 19.6%, an inhibition at 10 µM (PC-3) of 48.5% and an inhibition at 10 µM (MDA-MB-435) of less than 10%. It also gave an inhibition at 10 µM (CAKI-1) of 31.9%, an inhibition at 10 µM (U251) of 47% and an inhibition at 10 µM (DU-145) of less than 10%. For the same molecule, the inhibition at 10 µM (SW-620) was less than 10%, the inhibition at 10 µM (EKVX) was 27.6% and the inhibition at 10 µM (HCC-2998) was less than 10%. For the same molecule, the inhibition at 10 µM (NCI-H23) was less than 10%, the inhibition at 10 µM (CCRF-CEM) was 37.3% and the inhibition at 10 µM (786-0) was 11.3%. It also gave an inhibition at 10 µM (HT29) of 18.4%, an inhibition at 10 µM (COLO 205) of 15.4% and an inhibition at 10 µM (MALME-3M) of less than 10%. For the same molecule, the inhibition at 10 µM (SF-268) was 24.7%, the inhibition at 10 µM (HOP-62) was 22.7% and the inhibition at 10 µM (T-47D) was 21.5%. The inhibition at 10 µM (HCT-116) was 52.2%, the inhibition at 10 µM (SK-MEL-5) was 53.2% and the inhibition at 10 µM (NCI-H226) was 28.3%. For the same molecule, the inhibition at 10 µM (NCI-H322M) was less than 10%.
